Reference: patent US20250099421A1 (priority 2023, published 2025)

How the values were obtained:
[1] = cited from earlier work
[2] = test system: rat monosodium iodoacetate model of knee osteoarthritis; details: in vivo

Row | Molecule | half-life in-vivo [1] | weight bearing asymmetry at acute time points on Day 14 versus vehicle [2]
1 | hyaluronic acid [HA] | hours-days | –
2 | C=C(C)[C@]12C[C@@H](C)[C@@]34O[C@](Cc5ccccc5)(O[C@@H]1[C@@H]3C=C(COC(=O)Cc1ccc(O)c(OC)c1)C[C@]1(O)C(=O)C(C)=C[C@@H]41)O2 [RTX, resiniferatoxin] | – | increased weight bearing asymmetry
3 | COc1cc(CNC(=O)CCCC/C=C/C(C)C)ccc1O [CAP, capsaicin] | – | increased weight bearing asymmetry
